Measured values from US4443436A, “C-20-Modified macrolide derivatives of the macrolide antibiotics tylosin, desmycosin, macrocin, and lactenocin” (Eli Lilly and Company, priority 1982, dated 1984).
Values after ≈ are worked out from the molar mass of the structure shown. Where two headings read alike, the source gives them in different places.

What was measured:
Assay type in all cases: cell-based
Mycoplasma hyorhinis = assay: MIC, broth-dilution microtiter test, Mycoplasma hyorhinis
Description: (§1) The MIC's in Table X were obtained using conventional broth-dilution microtiter tests.

[1] = test system: Haemophilus influenzae R252; assay: MIC, standard agar-dilution assay, Haemophilus influenzae R252; details: Haemophilus influenzae R252, ampicillin-resistant strain
Mycoplasma hyopneumoniae = assay: MIC, broth-dilution microtiter test, Mycoplasma hyopneumoniae
Description: as §1

Mycoplasma synoviae = assay: MIC, broth-dilution microtiter test, Mycoplasma synoviae
Description: as §1

[2] = test system: Streptococcus pneumoniae Park I; assay: microbe, parasite or virus in culture; details: Streptococcus pneumoniae Park I, agar dilution
[3] = test system: Staphylococcus epidermidis EPI2; assay: MIC, standard agar-dilution assay, Staphylococcus epidermidis EPI2
[4] = test system: Staphylococcus aureus X400; assay: MIC, standard agar-dilution assay, Staphylococcus aureus X400
[5] = test system: Streptococcus Group D X66; assay: MIC, standard agar-dilution assay, Streptococcus Group D X66
[6] = test system: Pasteurella multocida 60A; assay: MIC, broth-dilution microtiter test, Pasteurella multocida 60A; details: Pasteurella multocida 60A, avian isolate, broth-dilution microtiter
Description: as §1

[7] = test system: Staphylococcus aureus S13E; assay: MIC, standard agar-dilution assay, Staphylococcus aureus S13E
[8] = test system: Streptococcus pyogenes C203; assay: MIC, standard agar-dilution assay, Streptococcus pyogenes C203
[9] = test system: Haemophilus influenzae Holt; assay: MIC, standard agar-dilution assay, Haemophilus influenzae Holt
Mycoplasma gallisepticum = assay: MIC, broth-dilution microtiter test, Mycoplasma gallisepticum
Description: as §1

[10] = test system: Staphylococcus epidermidis EPI1; assay: MIC, standard agar-dilution assay, Staphylococcus epidermidis EPI1
[11] = test system: Pasteurella hemolytica 22C; assay: MIC, broth-dilution microtiter test, Pasteurella hemolytica 22C; details: Pasteurella hemolytica 22C, broth-dilution microtiter
Description: as §1

Streptococcus Group 9960 = assay: MIC, standard agar-dilution assay, Streptococcus Group 9960; details: Streptococcus Group 9960, agar dilution
Streptococcus bovis 80 = assay: MIC, broth-dilution microtiter test, Streptococcus bovis 80; details: Streptococcus bovis 80, broth-dilution microtiter
Description: as §1

[12] = test system: Staphylococcus aureus V41; assay: MIC, standard agar-dilution assay, Staphylococcus aureus V41
Staphylococcus aureus = assay: MIC, broth-dilution microtiter test, Staphylococcus aureus
Description: as §1

[13] = test system: Staphylococcus aureus X1.1; assay: MIC, standard agar-dilution assay, Staphylococcus aureus X1.1
[14] = test system: Pasteurella multocida 17E; assay: MIC, broth-dilution microtiter test, Pasteurella multocida 17E; details: Pasteurella multocida 17E, bovine isolate, broth-dilution microtiter
Description: as §1

[15] = Mesomycoplasma hyopneumoniae, Mycoplasma hyopneumoniae, broth-dilution microtiter, read-out: MIC
[16] = Staphylococcus epidermidis, EPI2
[17] = Streptococcus Group D X66, agar dilution, read-out: MIC
[18] = Streptococcus pyogenes C203, agar dilution, read-out: MIC
[19] = Staphylococcus epidermidis, EPI1
[20] = Streptococcus equinus, read-out: MIC
[21] = Mycoplasma hyorhinis, broth-dilution microtiter, read-out: MIC
[22] = Haemophilus influenzae Holt, ampicillin-sensitive strain, read-out: MIC

CCC1OC(=O)CC(O)C(C)C(OC2OC(C)C(OC3CC(C)(O)C(O)C(C)O3)C(N(C)C)C2O)C(CCOc2cccc(N(C)C)c2)CC(C)C(=O)C=CC(C)=CC1COC1OC(C)C(O)C(OC)C1OC (stereo not drawn) [Compound 16, 20-DH-20-O-[m-(N,N-Dimethylamino)phenyl]tylosin]
MIC (Mycoplasma hyorhinis; Mycoplasma): 50 µg/mL (≈ 48.2 µM) | MIC ([1]; read-out: MIC): > 128 µg/mL | MIC (Mycoplasma hyopneumoniae; [15]): > 25 µg/mL | MIC (Mycoplasma synoviae; Mycoplasmopsis synoviae, Mycoplasma synoviae, broth-dilution microtiter, read-out: MIC): 6.25 µg/mL (≈ 6.03 µM) | MIC ([2]; read-out: MIC): 8 µg/mL (≈ 7.71 µM) | MIC [3, 16]: 1 µg/mL (≈ 0.964 µM) | MIC ([4]; Staphylococcus aureus X400, methicillin-resistant strain, agar dilution, read-out: MIC): 2 µg/mL (≈ 1.93 µM) | MIC [5, 17]: 64 µg/mL (≈ 61.7 µM) | MIC ([6]; read-out: MIC): > 50 µg/mL | MIC ([7]; Staphylococcus aureus, S13E): 1 µg/mL (≈ 0.964 µM) | MIC [8, 18]: 1 µg/mL (≈ 0.964 µM) | MIC ([9]; Haemophilus influenzae): 128 µg/mL (≈ 123 µM) | MIC (Mycoplasma gallisepticum; Mycoplasmoides gallisepticum, Mycoplasma gallisepticum, broth-dilution microtiter, read-out: MIC): 1.56 µg/mL (≈ 1.5 µM) | MIC [10, 19]: 1 µg/mL (≈ 0.964 µM) | MIC ([11]; read-out: MIC): > 50 µg/mL | MIC (Streptococcus Group 9960; GROUP9960, read-out: MIC): > 128 µg/mL | MIC (Streptococcus bovis 80; [20]): 50 µg/mL (≈ 48.2 µM) | MIC ([12]; Staphylococcus aureus, V41): 1 µg/mL (≈ 0.964 µM) | MIC (Staphylococcus aureus; broth-dilution microtiter, read-out: MIC): 1.56 µg/mL (≈ 1.5 µM) | MIC ([13]; Staphylococcus aureus, X1.1): 1 µg/mL (≈ 0.964 µM) | MIC ([14]; read-out: MIC): > 50 µg/mL

CCC1OC(=O)CC(O)C(C)C(OC2OC(C)C(OC3CC(C)(O)C(O)C(C)O3)C(N(C)C)C2O)C(CCOc2ccc(C=O)cc2)CC(C)C(=O)C=CC(C)=CC1COC1OC(C)C(O)C(OC)C1OC (stereo not drawn) [Compound 17, 20-DH-20-O-(p-Formylphenyl)tylosin]
MIC (Mycoplasma hyorhinis; [21]): > 50 µg/mL | MIC ([1]; read-out: MIC): > 128 µg/mL | MIC (Mycoplasma hyopneumoniae; Mesomycoplasma hyopneumoniae): > 25 µg/mL | MIC (Mycoplasma synoviae; Mycoplasmopsis synoviae): 6.25 µg/mL (≈ 6.11 µM) | MIC ([2]; read-out: MIC): 16 µg/mL (≈ 15.7 µM) | MIC [3, 16]: 0.5 µg/mL (≈ 0.489 µM) | MIC ([4]; Staphylococcus aureus, X400): 2 µg/mL (≈ 1.96 µM) | MIC [5]: 128 µg/mL (≈ 125 µM) | MIC ([6]; read-out: MIC): > 50 µg/mL | MIC ([7]; Staphylococcus aureus, S13E): 1 µg/mL (≈ 0.978 µM) | MIC ([8]; Streptococcus pyogenes, C203): 1 µg/mL (≈ 0.978 µM) | MIC [9, 22]: > 128 µg/mL | MIC (Mycoplasma gallisepticum; Mycoplasmoides gallisepticum): 0.78 µg/mL (≈ 0.763 µM) | MIC [10, 19]: 1 µg/mL (≈ 0.978 µM) | MIC ([11]; read-out: MIC): > 50 µg/mL | MIC (Streptococcus Group 9960; GROUP9960, read-out: MIC): > 128 µg/mL | MIC (Streptococcus bovis 80; [20]): 50 µg/mL (≈ 48.9 µM) | MIC ([12]; Staphylococcus aureus, V41): 1 µg/mL (≈ 0.978 µM) | MIC (Staphylococcus aureus): 1.56 µg/mL (≈ 1.53 µM) | MIC ([13]; Staphylococcus aureus, X1.1): 1 µg/mL (≈ 0.978 µM) | MIC ([14]; read-out: MIC): > 50 µg/mL

CCC1OC(=O)CC(O)C(C)C(OC2OC(C)C(OC3CC(C)(O)C(O)C(C)O3)C(N(C)C)C2O)C(CCOC(C(F)(F)F)C(F)(F)F)CC(C)C(=O)C=CC(C)=CC1COC1OC(C)C(O)C(OC)C1OC (stereo not drawn) [Compound 19, 20-DH-20-O-[2,2,2-Trifluoro-1-(trifluormethyl)ethyl]tylosin]
MIC (Mycoplasma hyorhinis; [21]): > 50 µg/mL | MIC ([1]; read-out: MIC): > 128 µg/mL | MIC (Mycoplasma hyopneumoniae; [15]): > 25 µg/mL | MIC (Mycoplasma synoviae; Mycoplasmopsis synoviae): 12.5 µg/mL (≈ 11.7 µM) | MIC ([2]; read-out: MIC): 32 µg/mL (≈ 30 µM) | MIC ([3]; Staphylococcus epidermidis EPI2, agar dilution, read-out: MIC): 2 µg/mL (≈ 1.87 µM) | MIC ([4]; Staphylococcus aureus, X400): 4 µg/mL (≈ 3.74 µM) | MIC [5, 17]: > 128 µg/mL | MIC ([6]; read-out: MIC): > 50 µg/mL | MIC ([7]; Staphylococcus aureus, S13E): 4 µg/mL (≈ 3.74 µM) | MIC [8, 18]: 8 µg/mL (≈ 7.49 µM) | MIC [9, 22]: > 128 µg/mL | MIC (Mycoplasma gallisepticum; Mycoplasmoides gallisepticum): 3.12 µg/mL (≈ 2.92 µM) | MIC [10, 19]: 4 µg/mL (≈ 3.74 µM) | MIC ([11]; read-out: MIC): > 50 µg/mL | MIC (Streptococcus Group 9960; GROUP9960, read-out: MIC): > 128 µg/mL | MIC (Streptococcus bovis 80; [20]): > 50 µg/mL | MIC ([12]; Staphylococcus aureus, V41): 4 µg/mL (≈ 3.74 µM) | MIC (Staphylococcus aureus): 12.5 µg/mL (≈ 11.7 µM) | MIC ([13]; Staphylococcus aureus, X1.1): 4 µg/mL (≈ 3.74 µM) | MIC ([14]; read-out: MIC): > 50 µg/mL

CCC1OC(=O)CC(O)C(C)C(OC2OC(C)C(OC3CC(C)(O)C(O)C(C)O3)C(N(C)C)C2O)C(CCOc2ccccc2)CC(C)C(=O)C=CC(C)=CC1COC1OC(C)C(O)C(O)C1OC (stereo not drawn) [Compound 53, 20-DH-20-O-Phenylmacrocin]
MIC (Mycoplasma hyorhinis; Mycoplasma hyorhinis, broth-dilution microtiter): 50 µg/mL (≈ 51 µM) | MIC ([1]; agar dilution): -- (Not active at 128 mcg/ml, the highest level tested) | MIC (Mycoplasma hyopneumoniae; Mycoplasma hyopneumoniae, broth-dilution microtiter): 0.78 µg/mL (≈ 0.796 µM) | MIC (Mycoplasma synoviae; Mycoplasma synoviae, broth-dilution microtiter): 3.12 µg/mL (≈ 3.18 µM) | MIC [2]: 32 µg/mL (≈ 32.6 µM) | MIC ([3]; Staphylococcus epidermidis EPI2, agar dilution): 2 µg/mL (≈ 2.04 µM) | MIC ([4]; Staphylococcus aureus X400, methicillin-resistant strain, agar dilution): 4 µg/mL (≈ 4.08 µM) | MIC ([5]; Streptococcus Group D X66, agar dilution): -- (Not active at 128 mcg/ml, the highest level tested) | MIC [6]: 12.5 µg/mL (≈ 12.8 µM) | MIC ([7]; Staphylococcus aureus S13E, agar dilution): 2 µg/mL (≈ 2.04 µM) | MIC ([8]; Streptococcus pyogenes C203, agar dilution): 4 µg/mL (≈ 4.08 µM) | MIC ([9]; Haemophilus influenzae Holt, ampicillin-sensitive strain, agar dilution): -- (Not active at 128 mcg/ml, the highest level tested) | MIC (Mycoplasma gallisepticum; Mycoplasma gallisepticum, broth-dilution microtiter): < 0.05 µg/mL | MIC ([10]; Staphylococcus epidermidis EPI1, agar dilution): 2 µg/mL (≈ 2.04 µM) | MIC [11]: 25 µg/mL (≈ 25.5 µM) | MIC (Streptococcus Group 9960): -- (Not active at 128 mcg/ml, the highest level tested) | MIC (Streptococcus bovis 80): 6.25 µg/mL (≈ 6.38 µM) | MIC ([12]; Staphylococcus aureus V41, penicillin-resistant strain, agar dilution): 2 µg/mL (≈ 2.04 µM) | MIC (Staphylococcus aureus; broth-dilution microtiter): 0.39 µg/mL (≈ 0.398 µM) | MIC ([13]; Staphylococcus aureus X1.1, agar dilution): 2 µg/mL (≈ 2.04 µM) | MIC [14]: 25 µg/mL (≈ 25.5 µM)
